This note sets out measurements from patent US9988400B2 (Genentech, Inc., priority 2013, dated 2018).

This experiment addresses T1, HEK cells stably transfected with tetracycline inducible hNR1 and hNR2A (Homo sapiens, UniProt Q05586+Q12879).
T1 construct: expressed in transfected cells; host or cells: HEK cells, stably transfected, tetracycline/doxycycline inducible
In words: Assay 1: Cell-Based Assay, cytosolic calcium response to positive allosteric modulators (with 30 μM glycine and 300 nM L-glutamate, EC30). To be noted: Table 2; for EC50: cytosolic calcium response, with 30 μM glycine and 300 nM L-glutamate (EC30), — = no plateau was reached; for Max %: responses scaled relative to 100 μM L-glutamate maximal response (100%) and 0 μM L-glutamate (0%). The gist of the method: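 Cells induced 24 h with 7.5 μg mL^−1 doxycycline plus 500 μM (+)-ketamine, loaded 60 min at 37 °C with calcium dye in Mg-free HBSS (1.8 mM Ca, probenecid, 10 μM (+)-ketamine, pH 7.15). Peak RFU over 5 min after compound addition, scaled to 100 μM L-glutamate (100%) and 0 μM (0%); four-parameter Hill fit for EC50, max % if no plateau.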

T1 sequence (Q12879 23-1464, other chains not shown): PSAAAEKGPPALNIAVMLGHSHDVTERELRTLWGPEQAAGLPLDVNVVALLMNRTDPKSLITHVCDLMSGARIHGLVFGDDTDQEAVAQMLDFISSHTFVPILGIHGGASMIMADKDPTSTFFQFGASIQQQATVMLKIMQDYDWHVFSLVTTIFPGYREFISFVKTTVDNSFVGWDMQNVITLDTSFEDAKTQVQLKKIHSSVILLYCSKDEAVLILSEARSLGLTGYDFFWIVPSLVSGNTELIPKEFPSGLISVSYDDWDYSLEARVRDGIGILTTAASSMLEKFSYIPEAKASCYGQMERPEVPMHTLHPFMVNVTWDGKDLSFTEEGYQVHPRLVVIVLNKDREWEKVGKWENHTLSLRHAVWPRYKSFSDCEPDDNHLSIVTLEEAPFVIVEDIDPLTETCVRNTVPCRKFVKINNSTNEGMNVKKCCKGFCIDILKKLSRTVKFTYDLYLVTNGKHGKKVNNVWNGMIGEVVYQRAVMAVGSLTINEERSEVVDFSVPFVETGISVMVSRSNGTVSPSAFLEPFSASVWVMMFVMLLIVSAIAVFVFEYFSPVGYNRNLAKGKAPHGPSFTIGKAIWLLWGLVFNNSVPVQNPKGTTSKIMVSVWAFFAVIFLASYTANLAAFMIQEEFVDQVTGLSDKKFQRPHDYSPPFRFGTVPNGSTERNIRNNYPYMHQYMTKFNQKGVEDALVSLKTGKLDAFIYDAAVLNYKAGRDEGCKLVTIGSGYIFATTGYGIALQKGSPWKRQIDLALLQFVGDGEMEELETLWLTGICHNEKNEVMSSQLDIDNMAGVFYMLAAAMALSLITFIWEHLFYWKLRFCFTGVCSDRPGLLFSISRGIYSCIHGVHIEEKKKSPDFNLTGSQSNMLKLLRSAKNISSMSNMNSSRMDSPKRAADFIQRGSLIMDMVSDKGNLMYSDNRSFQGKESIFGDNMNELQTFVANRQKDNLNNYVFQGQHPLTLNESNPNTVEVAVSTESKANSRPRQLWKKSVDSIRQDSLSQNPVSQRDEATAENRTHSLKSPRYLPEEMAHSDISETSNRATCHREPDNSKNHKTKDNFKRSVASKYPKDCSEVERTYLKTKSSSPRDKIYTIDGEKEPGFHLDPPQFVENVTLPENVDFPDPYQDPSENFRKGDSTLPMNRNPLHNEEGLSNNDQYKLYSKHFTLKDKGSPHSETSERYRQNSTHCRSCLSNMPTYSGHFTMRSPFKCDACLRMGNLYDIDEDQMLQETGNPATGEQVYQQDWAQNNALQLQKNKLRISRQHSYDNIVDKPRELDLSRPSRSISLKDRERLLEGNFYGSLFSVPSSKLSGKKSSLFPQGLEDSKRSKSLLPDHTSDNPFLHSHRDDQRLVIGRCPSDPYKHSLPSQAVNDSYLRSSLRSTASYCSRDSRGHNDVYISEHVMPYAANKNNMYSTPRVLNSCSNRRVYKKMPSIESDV

For the compound `CCN(Cc1cc(=O)n2c3c(sc2n1)CCOC3)c1ccc(F)cc1` [Example 8.9, 2-[(N-ethyl-4-fluoro-anilino)methyl]-8,9-dihydro-6H-pyrano[3,4]thiazolo[1,4-a]pyrimidin-4-one], the EC50 amounted to 11100 nM and the Max % was determined as 124%.

Consider `CCN(Cc1cc(=O)n2c3c(sc2n1)CCN(C)C3)c1ccc(F)cc1` [Example 8.10, 2-[(N-ethyl-4-fluoro-anilino)methyl]-7-methyl-8,9-dihydro-6H-pyrido[3,4]thiazolo[1,4-a]pyrimidin-4-one], for which the EC50 was 12500 nM and the Max % came out at 127%.

With `CCN(Cc1cc(=O)n2c3c(sc2n1)CCC3C(N)=O)c1ccc(F)cc1` (stereo not drawn) [Example 8.11, 6-[(N-ethyl-4-fluoro-anilino)methyl]-8-oxo-2,3-dihydro-1H-cyclopenta[3,4]thiazolo[1,4-a]pyrimidine-1-carboxamide], the EC50 came out at 2700 nM and the Max % is recorded as 154%.

In the case of `CCN(Cc1cc(=O)n2c3c(sc2n1)CCC3C#N)c1ccc(F)cc1` (stereo not drawn) [Example 8.12, 6-[(N-ethyl-4-fluoro-anilino)methyl]-8-oxo-2,3-dihydro-1H-cyclopenta[3,4]thiazolo[1,4-a]pyrimidine-1-carbonitrile], the EC50 turned out to be 385 nM and the Max % is 161%.

As to `CCN(Cc1cc(=O)n2c3c(sc2n1)CCC3CC#N)c1ccc(F)cc1` (stereo not drawn) [Example 8.13, 2-[6-[(N-ethyl-4-fluoro-anilino)methyl]-8-oxo-2,3-dihydro-1H-cyclopenta[3,4]thiazolo[1,4-a]pyrimidin-1-yl]acetonitrile], the EC50 turned out to be 2200 nM and the Max % is 162%.

For `CCN(Cc1cc(=O)n2c3c(sc2n1)CCC3CCO)c1ccc(F)cc1` (stereo not drawn) [Example 8.14, 6-[(N-ethyl-4-fluoro-anilino)methyl]-1-(2-hydroxyethyl)-2,3-dihydro-1H-cyclopenta[3,4]thiazolo[1,4-a]pyrimidin-8-one], the EC50 came to 1100 nM and the Max % stood at 154%.

For the compound `CCN(Cc1cc(=O)n2c3c(sc2n1)CCC3COC)c1ccc(F)cc1` (stereo not drawn) [Example 8.15, 2-((ethyl(4-fluorophenyl)amino)methyl)-6-(methoxymethyl)-7,8-dihydrocyclopenta[4,5]thiazolo[3,2-a]pyrimidin-4(6H)-one], the EC50 is 2300 nM and the Max % is given as 138%.

As for `CCN(Cc1cc(=O)n2c3c(sc2n1)CCC3CC(N)=O)c1ccc(F)cc1` (stereo not drawn) [Example 8.16, 2-[6-[(N-ethyl-4-fluoro-anilino)methyl]-8-oxo-2,3-dihydro-1H-cyclopenta[3,4]thiazolo[1,4-a]pyrimidin-1-yl]acetamide], the EC50 turned out to be 13000 nM and the Max % was 137%.

On to `CCN(Cc1cc(=O)n2c(C3CCCCC3)c(C)sc2n1)c1ccc(F)cc1` [Example 9.1, 3-cyclohexyl-7-[[ethyl(4-fluorophenyl)amino]methyl]-2-methyl-5H-[1,3]thiazolo[3,2-a]pyrimidin-5-one], for which the Max % stood at 48.1%.

With `CCN(Cc1cc(=O)n2c(C(C)C)c(C)sc2n1)c1ccc(F)cc1` [Example 9.2, 7-[(N-ethyl-4-fluoro-anilino)methyl]-3-isopropyl-2-methyl-thiazolo[3,2-a]pyrimidin-5-one], the EC50 came out at 2900 nM and the Max % was determined as 117%.

`CCN(Cc1cc(=O)n2c(C3CCCC3)c(C)sc2n1)c1ccc(F)cc1` [Example 9.3, 3-cyclopentyl-7-[(N-ethyl-4-fluoro-anilino)methyl]-2-methyl-thiazolo[3,2-a]pyrimidin-5-one]: the EC50 came to 7000 nM and the Max % was 108%.

With `CCN(Cc1cc(=O)n2c(C3CCOCC3)c(C)sc2n1)c1ccc(F)cc1` [Example 9.4, 7-[(N-ethyl-4-fluoro-anilino)methyl]-2-methyl-3-tetrahydropyran-4-yl-thiazolo[3,2-a]pyrimidin-5-one], the EC50 was found to be 9200 nM and the Max % stood at 114%.

Regarding `CCN(Cc1cc(=O)n2c(C3CCC3)c(C)sc2n1)c1ccc(F)cc1` [Example 10.1, 3-cyclobutyl-7-[(N-ethyl-4-fluoro-anilino)methyl]-2-methyl-thiazolo[3,2-a]pyrimidin-5-one], the EC50 is 4400 nM and the Max % was 130%.

For `CCN(Cc1cc(=O)n2c(C(C)(C)C)c(C)sc2n1)c1ccc(F)cc1` [Example 10.2, 3-tert-butyl-7-[(N-ethyl-4-fluoro-anilino)methyl]-2-methyl-thiazolo[3,2-a]pyrimidin-5-one], the EC50 turned out to be 5300 nM and the Max % worked out at 110%.

Take `CCN(Cc1cc(=O)n2c(C(C)=O)c(C)sc2n1)c1ccc(F)cc1` [Example 10.3, 3-acetyl-7-[[ethyl(4-fluorophenyl)amino]methyl]-2-methyl-5H-[1,3]thiazolo[3,2-a]pyrimidin-5-one]: the EC50 is 535 nM and the Max % is listed as 177%.

As to `CCN(Cc1cc(=O)n2c(C(=O)NC)c(C)sc2n1)c1ccc(F)cc1` [Example 10.4, 7-[(N-ethyl-4-fluoro-anilino)methyl]-N,2-dimethyl-5-oxo-thiazolo[3,2-a]pyrimidine-3-carboxamide], the EC50 was 593 nM and the Max % amounted to 186%.

As for `CCN(Cc1cc(=O)n2c(C(C)(C)O)c(C)sc2n1)c1ccc(F)cc1` [Example 10.5, 7-[(N-ethyl-4-fluoro-anilino)methyl]-3-(1-hydroxy-1-methyl-ethyl)-2-methyl-thiazolo[3,2-a]pyrimidin-5-one], the EC50 was 495 nM and the Max % is on record as 158%.

On to `CCN(Cc1cc(=O)n2c(C(C)O)c(C)sc2n1)c1ccc(F)cc1` (stereo not drawn) [Example 10.6, 7-[(N-ethyl-4-fluoro-anilino)methyl]-3-(1-hydroxyethyl)-2-methyl-thiazolo[3,2-a]pyrimidin-5-one], for which the EC50 turned out to be 548 nM and the Max % is on record as 176%.

Turning to `CCN(Cc1cc(=O)n2c(CN(C)C)c(C)sc2n1)c1ccc(F)cc1` [Example 10.7, 3-[(dimethylamino)methyl]-7-[[ethyl(4-fluorophenyl)amino]methyl]-2-methyl-5H-[1,3]thiazolo[3,2-a]pyrimidin-5-one], the EC50 is 23400 nM and the Max % is listed as 127%.

Consider `CCN(Cc1cc(=O)n2c(CN3CCC3)c(C)sc2n1)c1ccc(F)cc1` [Example 10.8, 3-(azetidin-1-ylmethyl)-7-[(N-ethyl-4-fluoro-anilino)methyl]-2-methyl-thiazolo[3,2-a]pyrimidin-5-one], for which the Max % stood at 63.5%.

With `CCN(Cc1cc(=O)n2c(CN3CCCC3)c(C)sc2n1)c1ccc(F)cc1` [Example 10.9, 7-[(N-ethyl-4-fluoro-anilino)methyl]-2-methyl-3-(pyrrolidin-1-ylmethyl)thiazolo[3,2-a]pyrimidin-5-one], the Max % was 72.1%.

Consider `CCN(Cc1cc(=O)n2c(CN3CC(O)C3)c(C)sc2n1)c1ccc(F)cc1` [Example 10.10, 7-[(N-ethyl-4-fluoro-anilino)methyl]-3-[(3-hydroxyazetidin-1-yl)methyl]-2-methyl-thiazolo[3,2-a]pyrimidin-5-one], for which the EC50 stood at 18800 nM and the Max % came to 132%.

As to `CCN(Cc1cc(=O)n2c(C(O)C(F)(F)F)c(C)sc2n1)c1ccc(F)cc1` (stereo not drawn) [Example 10.11, 7-[(N-ethyl-4-fluoro-anilino)methyl]-2-methyl-3-(2,2,2-trifluoro-1-hydroxy-ethyl)thiazolo[3,2-a]pyrimidin-5-one], the EC50 stood at 1200 nM and the Max % worked out at 167%.

In the case of `CCN(Cc1cc(=O)n2c(CO)c(C)sc2n1)c1ccc(F)cc1` [Example 10.12, 7-((ethyl(4-fluorophenyl)amino)methyl)-3-(hydroxymethyl)-2-methyl-5H-thiazolo[3,2-a]pyrimidin-5-one], the EC50 turned out to be 2100 nM and the Max % is 149%.

In the case of `CCN(Cc1cc(=O)n2c(COC)c(C)sc2n1)c1ccc(F)cc1` [Example 10.13, 7-[[ethyl(4-fluorophenyl)amino]methyl]-3-(methoxymethyl)-2-methyl-5H-[1,3]thiazolo[3,2-a]pyrimidin-5-one], the EC50 was determined as 345 nM and the Max % is listed as 165%.

Consider `CCN(Cc1cc(=O)n2c(Cn3cccn3)c(C)sc2n1)c1ccc(F)cc1` [Example 10.14, 7-[[Ethyl(4-fluorophenyl)amino]methyl]-2-methyl-3-(1H-pyrazol-1-ylmethyl)-5H-[1,3]thiazolo[3,2-a]pyrimidin-5-one], for which the EC50 was 1500 nM and the Max % was 172%.

`CCN(Cc1cc(=O)n2c(CS(C)(=O)=O)c(C)sc2n1)c1ccc(F)cc1` [Example 10.15, 7-[(N-ethyl-4-fluoro-anilino)methyl]-2-methyl-3-(methylsulfonylmethyl)thiazolo[3,2-a]pyrimidin-5-one]: the EC50 was 1300 nM and the Max % worked out at 156%.

For the compound `CCOCc1c(C)sc2nc(CN(CC)c3ccc(F)cc3)cc(=O)n12` [Example 10.16, 3-(ethoxymethyl)-7-[(N-ethyl-4-fluoro-anilino)methyl]-2-methyl-thiazolo[3,2-a]pyrimidin-5-one], the EC50 was determined as 2700 nM and the Max % came out at 147%.

Consider `CCN(Cc1cc(=O)n2c(CC#N)c(C)sc2n1)c1ccc(F)cc1` [Example 10.17, 2-[7-[(N-ethyl-4-fluoro-anilino)methyl]-2-methyl-5-oxo-thiazolo[3,2-a]pyrimidin-3-yl]acetonitrile], for which the EC50 came out at 1200 nM and the Max % is 174%.

For the compound `CCN(Cc1cc(=O)n2c(C(C)(C)C)csc2n1)c1ccc(F)cc1` [Example 10.18, 3-tert-butyl-7-[(N-ethyl-4-fluoro-anilino)methyl]thiazolo[3,2-a]pyrimidin-5-one], the EC50 came to 16900 nM and the Max % came out at 88.2%.
